{"source": "paper PMC9017349", "about": "“Spiropyrimidinetriones: a Class of DNA Gyrase Inhibitors with Activity against Mycobacterium tuberculosis and without Cross-Resistance to Fluoroquinolones” (Antimicrobial Agents and Chemotherapy, 2022)", "key": {"[1]": {"tested_on": "M. tuberculosis MmpL3, G758A/G253E", "assay_type": "cell-based, Mycobacterium tuberculosis"}, "[2]": {"tested_on": "M. tuberculosis MmpL3, G253E", "assay_type": "cell-based, Mycobacterium tuberculosis"}, "[3]": {"tested_on": "M. tuberculosis ATCC 35838 (Rif resistance)", "experiment": "microbe, parasite or virus in culture", "assay_type": "cell-based", "conditions": "Mycobacterium tuberculosis, ATCC35838"}, "[4]": {"tested_on": "M. tuberculosis ATCC 3583 (INH resistance)", "experiment": "microbe, parasite or virus in culture", "assay_type": "cell-based", "conditions": "Mycobacterium tuberculosis, ATCC3583, read-out: MIC90, ATCC 3583 (INH resistance)"}, "[5]": {"tested_on": "M. tuberculosis ATCC 35826 (CS resistance)", "experiment": "microbe, parasite or virus in culture", "assay_type": "cell-based", "conditions": "Mycobacterium tuberculosis, ATCC35826"}, "[6]": {"tested_on": "M. tuberculosis DNA gyrase GyrA, A90V", "assay_type": "cell-based, Mycobacterium tuberculosis"}, "[7]": {"tested_on": "M. tuberculosis DNA gyrase GyrA, G88C", "assay_type": "cell-based, Mycobacterium tuberculosis"}, "[8]": {"tested_on": "M. tuberculosis QcrB D317T", "assay_type": "cell-based, Mycobacterium tuberculosis"}}}
{"smiles": "CC(C)=CCC/C(C)=C/CNCCNC1C2CC3CC(C2)CC1C3", "note": "(stereo not shown) [SQ109]", "values": [{"measurement": "MIC90, MmpL3, G758A/G253E", "setting": "[1]", "value": 2.0, "unit": "µM"}, {"measurement": "MIC90, MmpL3, G253E", "setting": "[2]", "value": 2.0, "unit": "µM"}]}
{"smiles": "NNC(=O)c1ccncc1", "note": "[Isoniazid, isoniazid]", "values": [{"measurement": "MIC90", "setting": "[3]", "value": 7.8, "unit": "µM"}, {"measurement": "MIC90", "setting": "[4]", "value": "> 62.5", "unit": "µM"}, {"measurement": "MIC90", "setting": "[5]", "value": 3.4, "unit": "µM"}]}
{"smiles": "CO[C@H]1/C=C/O[C@@]2(C)Oc3c(C)c(O)c4c(O)c(c(/C=N/N5CCN(C)CC5)c(O)c4c3C2=O)NC(=O)/C(C)=C\\C=C\\[C@H](C)[C@H](O)[C@@H](C)[C@@H](O)[C@@H](C)[C@H](OC(C)=O)[C@@H]1C", "note": "[Rif, rifampicin]", "values": [{"measurement": "MIC90, MmpL3, G758A/G253E", "setting": "[1]", "value": 0.001, "unit": "µM"}, {"measurement": "MIC90, DNA gyrase GyrA, A90V", "setting": "[6]", "value": 0.0023, "unit": "µM"}, {"measurement": "MIC90", "setting": "[3]", "value": "> 0.1", "unit": "µM"}, {"measurement": "MIC90", "setting": "[4]", "value": 0.006, "unit": "µM"}, {"measurement": "MIC90, DNA gyrase GyrA, G88C", "setting": "[7]", "value": 0.0023, "unit": "µM"}, {"measurement": "MIC90, MmpL3, G253E", "setting": "[2]", "value": 0.001, "unit": "µM"}, {"measurement": "MIC90", "setting": "[5]", "value": 0.001, "unit": "µM"}, {"measurement": "MIC90, QcrB D317T", "setting": "[8]", "value": 0.0046, "unit": "µM"}]}
{"smiles": "COc1c(N2C[C@@H]3CCCN[C@@H]3C2)c(F)cc2c(=O)c(C(=O)O)cn(C3CC3)c12", "note": "[Moxifloxacin, moxifloxacin]", "values": [{"measurement": "MIC90, DNA gyrase GyrA, A90V", "setting": "[6]", "value": 7.8, "unit": "µM"}, {"measurement": "MIC90, DNA gyrase GyrA, G88C", "setting": "[7]", "value": 0.49, "unit": "µM"}]}
{"smiles": "Cc1nnc(-c2noc3c(F)c4c(cc23)CC2(C(=O)NC(=O)NC2=O)[C@H]2[C@H](C)O[C@H](C)CN42)o1", "note": "[Compound 22]", "values": [{"measurement": "MIC90, DNA gyrase GyrA, A90V", "setting": "[6]", "value": 0.98, "unit": "µM"}, {"measurement": "MIC90, DNA gyrase GyrA, G88C", "setting": "[7]", "value": 0.98, "unit": "µM"}]}
{"smiles": "C[C@H]1COc2c(N3CCN(C)CC3)c(F)cc3c(=O)c(C(=O)O)cn1c23", "note": "[Levofloxacin]", "values": [{"measurement": "MIC90, DNA gyrase GyrA, A90V", "setting": "[6]", "value": 16, "unit": "µM"}, {"measurement": "MIC90, DNA gyrase GyrA, G88C", "setting": "[7]", "value": 2.0, "unit": "µM"}]}
